Data published in patent US20230027066A1 (Urovant Sciences GmbH, priority 2019, published 2023).

Key:
men and women with OAB = assay: Phase 2b study of vibegron in OAB, Part 1, efficacy at Week 8 (voiding diary); type: in vivo, human; settings: tolterodine ER 4 mg
Description: Part 2 was designed to continue to assess the safety and efficacy of concomitant dosing. […] Subjects in both Part 1 and Part 2 had the option of enrolling in a 1-year extension. Participants were required to keep a voiding diary, recording the occurrence of each strong urge, total incontinence, and urge incontinence episode. Efficacy data for Part 1 and Part 2 are summarized herein.
The total number of urgency incontinence episodes must have exceeded the total number of stress incontinence episodes for all subjects.

[1] = Description: A placebo group was included in the main study, and a group that received tolterodine monotherapy was included in the main study and in the extension.
[2] = Phase 3 study (75 mg), heart rate and blood pressure changes; type: in vivo, human
Description: Study assessments of safety included adverse events, physical examinations, vital signs (and weight), and clinical laboratory tests
Categorical changes are based on 3 consecutive post-baseline visits and patients are counted in all applicable categories (e.g., if a patient has a 12 unit increase then that patient is counted in both ≥5 and ≥10 unit columns).
Blood Pressure assessments are taken in triplicate and averaged at each visit.

[3] = 40-week extension study (52 weeks), adverse events
Description: Approximately 500 men and women with overactive bladder who completed 12 weeks in the parent study were permitted to enroll, at approximately 110 study sites in the U.S.
Secondary endpoints were evaluation of CFB at Week 52 in average number of micturitions, Urge Urinary Incontinence (UUI) episodes, urgency episodes, and total urinary incontinence episodes. All CFB calculations used the parent study Baseline value.

[4] = tested on: men and women with overactive bladder; assay: extension study, OAB-q LF coping subscore at Week 52; type: in vivo, human; settings: for OAB-q LF Coping Subscore, Week 52 Mean: Full Analysis Set Extension; for OAB-q LF Coping Subscore, Change from Baseline Mean at Week 52: baseline from parent study
[5] = 3 consecutive post-baseline visits

## Cc1ccc(O)c([C@H](CCN(C(C)C)C(C)C)c2ccccc2)c1 [Tolterodine ER, tolterodine, reference compound]
Men and women with OAB
  Change from baseline in volume voided per micturition at Week 8, difference from placebo in LS means: 30.77 mL
  Micturitions: adjusted difference from placebo at Week 8, difference in LS means (MMRM): −0.6
  Micturitions: change from baseline at Week 8, mean: −1.73
  Micturitions: daily number of events, Week 8 mean: 9.24
  Micturitions: difference from placebo at Week 8, difference in LS means (cLDA): −0.54
  Urgency episodes: adjusted difference from placebo at Week 8, difference in LS means (MMRM): −1.0
  Urgency episodes: change from baseline at Week 8, mean: −2.52
  Urgency episodes: daily number of events, Week 8 mean: 3.91
  Urgency episodes: difference from placebo at Week 8, difference in LS means (cLDA): −0.94
Men and women with OAB; OAB Wet subjects
  Total incontinence episodes: adjusted difference from placebo at Week 8, difference in LS means (MMRM): −0.3
  Total incontinence episodes: change from baseline at Week 8, mean: −1.80
  Total incontinence episodes: daily number of events, Week 8 mean: 1.32
  Total incontinence episodes: difference from placebo at Week 8, difference in LS means (cLDA): −0.34
  Urgency incontinence episodes: adjusted difference from placebo at Week 8, difference in LS means (MMRM): −0.4
  Urgency incontinence episodes: change from baseline at Week 8, mean: −1.67
  Urgency incontinence episodes: daily number of events, Week 8 mean: 1.15
  Urgency incontinence episodes: difference from placebo at Week 8, difference in LS means (cLDA): −0.46
[1]; Phase 2 study, tolterodine arm vs vibegron
  frequency of injuries: 2.1%
[1]; tolterodine 4 mg, main study
  SAEs reported in treatment group, number: 3
[1]; tolterodine ER 4 mg
  Accidental overdose: 6 (2.3) n (%)
  Alanine aminotransferase increased: 1 (0.4) n (%)
  Arthralgia: 3 (1.2) n (%)
  Aspartate aminotransferase increased: 0 (0.0) n (%)
  Constipation: 5 (1.9) n (%)
  Diarrhea: 9 (3.5) n (%)
  Discontinuation due to AE: 4 (1.6) n (%)
  Discontinuation due to drug-related AE: 0 n (%)
  Dizziness: 5 (1.9) n (%)
  Drug-related AE: 42 (16.3) n (%)
  Dry eye: 10 (3.9) n (%)
  Dry mouth: 22 (8.6) n (%)
  Dysuria: 3 (1.2) n (%)
  Fatigue: 6 (2.3) n (%)
  Headache: 9 (3.5) n (%)
  Nasopharyngitis: 4 (1.6) n (%)
  Nausea: 6 (2.3) n (%)
  Osteoarthritis: 0 (0.0) n (%)
  Pain in extremity: 1 (0.4) n (%)
  Serious AE: 3 (1.2) n (%)
  Sinusitis: 1 (0.4) n (%)
  Subjects with ≥1 AE: 116 (45.1) n (%)
  Urinary tract infection: 12 (4.7) n (%)
[2]; [5]
  Diastolic BP categorical change from baseline ≥5 mm Hg, patients: 7.4%
  Diastolic BP categorical change from baseline ≥10 mm Hg, patients: 2.1%
  Diastolic BP categorical change from baseline ≥15 mm Hg, patients: 0.7%
  Heart Rate categorical change from baseline ≥5 bpm, patients: 6.5%
  Heart Rate categorical change from baseline ≥10 bpm, patients: 2.1%
  Heart Rate categorical change from baseline ≥15 bpm, patients: 0.5%
  Systolic BP categorical change from baseline ≥5 mm Hg, patients: 9.3%
  Systolic BP categorical change from baseline ≥10 mm Hg, patients: 4.7%
  Systolic BP categorical change from baseline ≥15 mm Hg, patients: 2.1%
[2]; Hypertensive at baseline
  Diastolic BP, 12-week change (95% CI): −1.3 (−3.8, +1.3) mm Hg
  Heart Rate, 12-week change: +1.5 beats/minute
  Systolic BP, 12-week change (95% CI): −7.6 (−10.9, −4.3) mm Hg
[2]; Normotensive at baseline
  Diastolic BP, 12-week change (95% CI): +0.5 (−0.2, +1.3) mm Hg
  Heart Rate, 12-week change: +0.2 beats/minute
  Systolic BP, 12-week change (95% CI): +1.0 (−0.1, +2.1) mm Hg
[2]; Week 12, all patients
  Diastolic BP, Mean Change from Baseline at Week 12 (SD): 0.3 (7.11) mm Hg
  Heart Rate, Mean Change from Baseline at Week 12: 0.3 beats/minute
  Systolic BP, Mean Change from Baseline at Week 12: 0.1 mm Hg
[3]; 40-Weeks arm
  Discontinued the study: Death: 0 n (%)
[3]; 52-Weeks arm
  Discontinued the study: Death: 0 n (%)
[3]; Overall groups
  SAEs resulting in death (not considered related by Investigator or Sponsor): 0 n (%)
[3]; Overall groups, Randomized Set Extension
  Discontinued the study: Death: 0 n (%)
[3]; both, human, in vivo
  Discontinued the study: Adverse Event: 8 (3.4) n (%)
  Patients with at least one treatment-emergent adverse event: 126 (54.3) n (%)
  Patients with at least one treatment-emergent serious AE: 10 (4.3) n (%)
  SAEs considered treatment-related by the investigator: 2 (0.9) n (%)
  SAEs: Hospitalization: 9 (3.9) n (%)
  SAEs: Other serious criteria: 2 (0.9) n (%)
[3]; both, human, in vivo, 40 weeks
  Discontinued the study: Adverse Event: 4 (4.4) n (%)
[3]; both, human, in vivo, 52 weeks
  AE leading to discontinuation of study drug: Acute prerenal failure: 1 (0.4) n (%)
  AE leading to discontinuation of study drug: Amnesia: 0 n (%)
  AE leading to discontinuation of study drug: Any: 8 (3.4) n (%)
  AE leading to discontinuation of study drug: Aortic stenosis: 1 (0.4) n (%)
  AE leading to discontinuation of study drug: Atrial fibrillation: 1 (0.4) n (%)
  AE leading to discontinuation of study drug: Blood creatinine increased: 0 n (%)
  AE leading to discontinuation of study drug: Blood urea increased: 0 n (%)
  AE leading to discontinuation of study drug: Cardiac failure: 1 (0.4) n (%)
  AE leading to discontinuation of study drug: Cardiomyopathy: 1 (0.4) n (%)
  AE leading to discontinuation of study drug: Chronic kidney disease: 1 (0.4) n (%)
  AE leading to discontinuation of study drug: Constipation: 0 n (%)
  AE leading to discontinuation of study drug: Diarrhea: 0 n (%)
  AE leading to discontinuation of study drug: Dizziness: 1 (0.4) n (%)
  AE leading to discontinuation of study drug: Dry eye: 1 (0.4) n (%)
  AE leading to discontinuation of study drug: Dyspnoea: 1 (0.4) n (%)
  AE leading to discontinuation of study drug: Haematuria: 1 (0.4) n (%)
  AE leading to discontinuation of study drug: Headache: 1 (0.4) n (%)
  AE leading to discontinuation of study drug: Intervertebral disc degeneration: 1 (0.4) n (%)
  AE leading to discontinuation of study drug: Mitral valve incompetence: 1 (0.4) n (%)
  AE leading to discontinuation of study drug: Osteoarthritis: 1 (0.4) n (%)
  AE leading to discontinuation of study drug: Pulmonary embolism: 1 (0.4) n (%)
  AE leading to discontinuation of study drug: Sinus tachycardia: 1 (0.4) n (%)
  AE leading to discontinuation of study drug: Tricuspid valve incompetence: 1 (0.4) n (%)
  AE: Anaemia: 2 (0.9) n (%)
  AE: Atrial fibrillation: 1 (0.4) n (%)
  AE: Back pain: 3 (1.3) n (%)
  AE: Blood pressure increased: 4 (1.7) n (%)
  AE: Bronchitis: 3 (1.3) n (%)
  AE: Constipation: 6 (2.6) n (%)
  AE: Diarrhea: 4 (1.7) n (%)
  AE: Dizziness: 2 (0.9) n (%)
  AE: Dry mouth: 12 (5.2) n (%)
  AE: Fatigue: 0 n (%)
  AE: Headache: 9 (3.9) n (%)
  AE: Hyperglycemia: 2 (0.9) n (%)
  AE: Hypertension: 20 (8.6) n (%)
  AE: Hypotension: 0 n (%)
  AE: Musculoskeletal pain: 1 (0.4) n (%)
  AE: Nasopharyngitis: 12 (5.2) n (%)
  AE: Nausea: 7 (3.0) n (%)
  AE: Residual urine volume increased: 3 (1.3) n (%)
  AE: Syncope: 1 (0.4) n (%)
  AE: Tachycardia (Sinus Tachycardia): 1 (0.4) n (%)
  AE: Upper respiratory tract infection: 1 (0.4) n (%)
  AE: Urinary retention: 1 (0.4) n (%)
  AE: Urinary tract infection: 17 (7.3) n (%)
  Discontinued the study: Adverse Event: 4 (2.8) n (%)
[4]; 40-Week treatment group
  OAB-q LF Coping Subscore, Week 52 Mean: 82.5
  OAB-q LF Coping Subscore, Change from Baseline Mean at Week 52: 24.7
[4]; 52-Week treatment group
  OAB-q LF Coping Subscore, Week 52 Mean: 81.8
  OAB-q LF Coping Subscore, Change from Baseline Mean at Week 52: 22.1
